Laboratory results as given in US20260176300A1, “N-ARYLPYRAZOLE NOD2 AGONISTS AS PROMOTERS OF IMMUNE CHECKPOINT INHIBITOR THERAPY” (THE SCRIPPS RESEARCH INSTITUTE, priority 2022, published 2026).
Like-named read-outs stand apart in the source and are kept apart here.

Columns and labels:
[1] = molecular target: T1, NOD1 (Homo sapiens, UniProt Q9Y239); details: relative to iE-DAP; cited from earlier work
T1 construct: host or cells: HEK-293T-derived HEK-Blue NF-kB/SEAP reporter cells
T1 sequence (Q9Y239 1-953): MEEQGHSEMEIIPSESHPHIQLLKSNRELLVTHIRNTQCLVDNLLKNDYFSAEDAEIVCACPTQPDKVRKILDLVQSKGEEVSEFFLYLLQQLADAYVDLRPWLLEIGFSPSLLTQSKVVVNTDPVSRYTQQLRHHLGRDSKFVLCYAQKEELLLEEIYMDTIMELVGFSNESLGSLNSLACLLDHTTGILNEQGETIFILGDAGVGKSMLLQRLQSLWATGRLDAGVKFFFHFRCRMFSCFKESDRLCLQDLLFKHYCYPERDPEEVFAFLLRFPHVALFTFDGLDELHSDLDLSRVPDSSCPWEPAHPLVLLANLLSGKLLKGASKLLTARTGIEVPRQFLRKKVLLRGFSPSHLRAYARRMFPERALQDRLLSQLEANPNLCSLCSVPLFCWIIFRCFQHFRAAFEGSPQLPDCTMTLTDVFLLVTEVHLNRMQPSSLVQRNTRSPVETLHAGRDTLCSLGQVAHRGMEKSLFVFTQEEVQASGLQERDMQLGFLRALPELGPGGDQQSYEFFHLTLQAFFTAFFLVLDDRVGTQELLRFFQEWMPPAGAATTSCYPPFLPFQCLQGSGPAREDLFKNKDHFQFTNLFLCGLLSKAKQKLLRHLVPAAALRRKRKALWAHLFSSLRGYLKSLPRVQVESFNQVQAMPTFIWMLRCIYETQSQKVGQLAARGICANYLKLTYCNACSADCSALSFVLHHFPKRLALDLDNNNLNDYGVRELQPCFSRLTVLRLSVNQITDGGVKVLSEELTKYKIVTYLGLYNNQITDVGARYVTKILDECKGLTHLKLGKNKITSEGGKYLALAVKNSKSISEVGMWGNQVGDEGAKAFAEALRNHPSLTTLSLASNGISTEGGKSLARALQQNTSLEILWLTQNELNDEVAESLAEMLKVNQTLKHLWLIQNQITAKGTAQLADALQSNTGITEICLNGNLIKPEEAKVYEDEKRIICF

[2] = molecular target: T2, NOD2 (Homo sapiens, UniProt Q9HC29); test: NOD2-HEK-Blue NF-κB reporter cell activation assay (NOD2-expressing HEK-293T cells); assay type: cell-based
T2 construct: host or cells: HEK-293T-derived HEK-Blue NF-kB/SEAP reporter cells
Text: FIG. 1(A-F). Virtual screening for small molecule NOD2 agonists. A, Docked structure of muramyl dipeptide (MDP) in the leucine-rich repeat (LRR) domain of rabbit NOD2 (pdb 5IRM). […] B, Results of virtual docking approach with reported chemical structures related to MDP. C, Workflow of virtual screening in which a library was generated using carboxylic acids appended to the L-Val-D-Glu dipeptide and then docked to the NOD2 LRR domain. D, Desmuramyl MDP (dMDP) structures resulting from the virtual screen that were synthesized for further screening. Chemicals shown as a pure enantiomer were synthesized as a racemic mixture. E, Activation of NOD2-expressing HEK-293T cells treated for 16 h with 10 µM of the indicated compound using a colorimetric assay. F, Dose-dependent activation of NOD2-expressing HEK-293T cells using the indicated compounds. Numbers in parentheses represent calculated negative log of the half maximal effective concentration (pEC50) values. NOD activation assays were analyzed using a one-way ANOVA with Dunnett's multiple comparisons test compared to the DMSO control. pEC50 values were derived by a three-parameter dose-response nonlinear regression. ****P<0.0001.
FIG. 2(A-G). Structure-activity relationship studies of 3,5-dimethyl-N-arylpyrazole NOD2 agonists. A, Structures of 3,5-dimethyl-N-arylpyrazole structures synthesized for SAR studies. B-F, Dose-dependent activation of NOD2-expressing HEK-293T cells using the indicated compounds grouped by similar structural perturbations. Numbers in parentheses represent calculated pEC50 values. G, Graph of calculated pEC50 values vs. calculated partition coefficient (clogP). Dotted lines show equivalent lipophilic ligand efficiency (LLE) values. Red arrow indicates optimization of the TT007 scaffold to TT030. pEC50 values were derived by a three-parameter dose-response nonlinear regression.
(§1) Cell culture. The following cell lines were used and sourced as follows: HEK-Blue NOD2 (InvivoGen, hkb-hnod2), HEK-Blue NOD1 (InvivoGen, hkb-nod1), HEK-Blue Null2 (hkb-null2), and B16-F10 (ATCC CRL-6475). All cell lines were cultured at 37° C. in 5% CO2 in DMEM (ThermoFisher, 11995065) supplemented with 10% fetal bovine serum (FBS), 100 U mL-1 penicillin, and 100 μg mL-1 streptomycin. Cells were maintained at no greater than 70% confluency and subcultured using TrypLE Express. Cell lines were routinely cultured without antibiotics to ensure no bacterial infection and tested for mycoplasma using a Universal Mycoplasma Detection Kit (ATCC 30-1012K). Primary human peripheral mononuclear blood cells (PBMCs) were cultured at 37° C. in 5% CO2 in RPMI 1640 (ThermoFisher, 61870143) supplemented with 10% FBS. All experimental work using human samples was reviewed and approved by the Scripps Research Institutional Review Board (Protocol IRB-21-7816NOD2).
Reporter cell line activation assay. Approximately 24 h before the assay, culture medium for each of the HEK-Blue reporter cell lines was replaced with a 1:1 mixture of DMEM supplemented with 10% FBS and OptiMEM. On the day of the assay, single cell suspensions (150,000 cells/mL) were produced in HEK-Blue detection medium (InvivoGen, hb-det2). Cells were aliquoted at 200 μL per well of a 96-well plate containing 0.2 μL of a 1000× stock of each test compound in DMSO. Cells were then incubated at 37° C. in 5% CO2 for 8-10 h. To measure activity, wells were then gently pipetted up and down to mix the conditioned medium, and absorbance from the colorimetric product of the secreted alkaline phosphatase was measured at 630 nm. In some assays, cells were stimulated for 16 h with compounds as described above in complete DMEM. Then, 20 μL of the conditioned medium was mixed with 180 μL QUANTI-Blue solution (InvivoGen, rep-qbs) and incubated for 2-4 h at 37° C. Activity was then measured by absorbance as described above.

[3] = molecular target: T1, NOD1; test: NOD1 HEK-Blue NF-κB reporter cell activation assay (NOD1-expressing HEK-293T cells); assay type: cell-based; details: 10 μM, 16 h (FIG. 5)
Method: (§2) FIG. 5(A-B). Lead 3,5-dimethyl-N-arylpyrazole TT007 specifically activates NOD2. A-B, Activation of Null (control) and NOD1-expressing HEK-293T cells treated for 16 h with 10 μM of the indicated compound using a colorimetric assay. ****P<0.0001.
as §1, with “All experimental work using human samples was reviewed and approved by the Scripps Research Institutional Review Board (Protocol IRB-21-7816NOD2).” left out
(§3) Reporter cell line activation assay. […] To measure activity, wells were then gently pipetted up and down to mix the conditioned medium, and absorbance from the colorimetric product of the secreted alkaline phosphatase was measured at 630 nm. […] Activity was then measured by absorbance as described above.

[4] = system: HEK-Blue Null2; test: NULL HEK-Blue NF-κB reporter cell activation assay (control); assay type: cell-based; details: 10 μM, 16 h (FIG. 5)
Method: as §2
as §1, with “All experimental work using human samples was reviewed and approved by the Scripps Research Institutional Review Board (Protocol IRB-21-7816NOD2).” left out
as §3

T2 sequence (Q9HC29 whole entry): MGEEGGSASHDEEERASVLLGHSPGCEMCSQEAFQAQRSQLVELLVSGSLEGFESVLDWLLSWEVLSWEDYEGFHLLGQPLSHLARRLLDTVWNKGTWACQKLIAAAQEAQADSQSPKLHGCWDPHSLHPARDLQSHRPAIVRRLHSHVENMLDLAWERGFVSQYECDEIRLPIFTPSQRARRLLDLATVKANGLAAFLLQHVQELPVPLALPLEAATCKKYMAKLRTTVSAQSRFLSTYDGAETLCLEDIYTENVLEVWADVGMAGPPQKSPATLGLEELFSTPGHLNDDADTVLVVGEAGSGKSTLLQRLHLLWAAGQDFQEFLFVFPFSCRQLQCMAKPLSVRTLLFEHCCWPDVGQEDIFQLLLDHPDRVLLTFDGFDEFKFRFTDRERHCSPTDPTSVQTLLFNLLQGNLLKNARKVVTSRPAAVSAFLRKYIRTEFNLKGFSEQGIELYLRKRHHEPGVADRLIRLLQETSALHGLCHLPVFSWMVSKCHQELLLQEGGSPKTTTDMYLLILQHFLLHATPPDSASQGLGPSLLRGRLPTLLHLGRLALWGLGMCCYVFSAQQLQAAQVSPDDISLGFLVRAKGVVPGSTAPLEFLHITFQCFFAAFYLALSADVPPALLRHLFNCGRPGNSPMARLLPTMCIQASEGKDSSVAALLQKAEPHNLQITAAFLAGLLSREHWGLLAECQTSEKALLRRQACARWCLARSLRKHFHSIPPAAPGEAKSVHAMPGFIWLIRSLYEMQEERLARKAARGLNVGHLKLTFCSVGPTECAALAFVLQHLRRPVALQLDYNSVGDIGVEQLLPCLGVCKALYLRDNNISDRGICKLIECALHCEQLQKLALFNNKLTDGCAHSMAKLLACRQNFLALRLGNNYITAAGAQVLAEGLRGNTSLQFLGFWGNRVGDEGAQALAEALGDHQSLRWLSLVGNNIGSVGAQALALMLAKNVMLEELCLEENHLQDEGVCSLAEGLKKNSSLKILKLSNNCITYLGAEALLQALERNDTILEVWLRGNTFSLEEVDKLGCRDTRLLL

| Structure (SMILES) | Greater activation of NOD1-dependent NF-κB reporter [1] | Activation of NOD2-expressing HEK-293T cells, colorimetric assay ([2]; 10 µM, 16 h (FIG. 1E)) | EC50 ([2]; FIG. 1F, read-out: pEC50, dose-dependent NOD2 activation (converted)) | EC50 ([2]; calculated, three-parameter dose-response nonlinear regression, read-out: pEC50 (μM), dose-dependent activation of NOD2-expressing HEK-293T cells (converted)) | Activation of NOD1 HEK-Blue NF-κB reporter cells [3] | Activation of NULL HEK-Blue NF-κB reporter cells [4] |
| --- | --- | --- | --- | --- | --- | --- |
| CCCCCCCCCCCC(=O)N[C@H](CCC(=O)NC(CCCC(N)C(=O)O)C(=O)O)C(=O)O (stereo partly drawn) [C12-iE-DAP] | ~100 fold |  |  |  |  |  |
| CCOC(=O)CC[C@@H](NC(=O)[C@@H](NC(=O)c1c(C)nn(-c2ccc(F)cc2)c1C)C(C)C)C(=O)OCC [TT007, Diethyl (1-(4-fluorophenyl)-3,5-dimethyl-1H-pyrazole-4-carbonyl)-L-valyl-D-glutamate] |  | active | ~1 µM | 1 µM | inactive | inactive |
